{"source": "paper PMC5050145", "about": "(European journal of nuclear medicine and molecular imaging, 2016)", "key": {"PSMA": {"molecular_target": "PSMA", "conditions": "read-out: Ki value towards PSMA; complexed to natGa; cell-based assay; cited from earlier work"}, "LNCaP cells": {"system": "LNCaP cells", "conditions": "complexed to natGa; cited from earlier work"}, "[1]": {"experiment": "Stability of the final product in formulation", "format": "physicochemical", "conditions": "3 h; buffered solution at pH 6.8"}, "[2]": {"experiment": "In-vitro stability in mouse blood plasma", "format": "in vitro ADME", "conditions": "2 h, 37 °C"}, "[3]": {"experiment": "In-vitro stability in human blood plasma", "format": "in vitro ADME", "conditions": "2 h, 37 °C"}, "[4]": {"experiment": "Biodistribution by microPET/CT imaging in C57BL6 mice", "format": "in vivo", "conditions": "1 h post-injection, microPET"}, "[5]": {"experiment": "Dosimetry: mouse microPET biodistribution extrapolated to humans", "format": "in vivo, C57BL6 mice", "conditions": "for effective dose: administered activity of 200 MBq"}}, "note": "Where “and” joins values, the source holds several entries; their conditions need not be identical. Equal entries are not always repeated."}
{"smiles": "O=C(O)CCc1ccc(O)c(CN(CCN(CC(=O)O)Cc2cc(CCC(=O)NCCCCCC(=O)NCCCC[C@H](NC(=O)N[C@@H](CCC(=O)O)C(=O)O)C(=O)O)ccc2O)CC(=O)O)c1", "note": "[PSMA-11, Glu-urea-Lys (Ahx)-HBED-CC]", "values": [{"measurement": "Ki", "setting": "PSMA", "result": "12 ± 2.8", "unit": "nM"}, {"measurement": "uptake in PSMA-positive LNCaP cells", "setting": "LNCaP cells", "result": "readily taken up"}]}
{"smiles": "O=C([O-])CN(CCN(CC(=O)[O-])Cc1cc(CCC(=O)NCCCCCC(=O)NCCCC[C@H](NC(=O)N[C@@H](CCC(=O)O)C(=O)O)C(=O)O)ccc1O)Cc1cc(CCC(=O)O)ccc1O.[18F-].[Al+3]", "note": "[18F-PSMA-11]", "values": [{"measurement": "radiochemical purity in stability test", "setting": "[1]", "result": "> 97", "unit": "%"}, {"measurement": "intact compound", "setting": "[2]", "result": 91, "unit": "%"}, {"measurement": "intact compound", "setting": "[3]", "result": 94, "unit": "%"}, {"measurement": "tissue uptake, bladder", "setting": "[4]", "result": "77.4 ± 39.1", "unit": "%ID/g"}, {"measurement": "tissue uptake, kidneys", "setting": "[4]", "result": "119.3 ± 16.5", "unit": "%ID/g"}, {"measurement": "Mean RT (time-integrated activity coefficient) scaled to humans", "setting": "[5]; Bone, Method 1", "result": "0.045 ± 0.013", "unit": "h"}, {"measurement": "Mean RT (time-integrated activity coefficient) scaled to humans", "setting": "[5]; Bone, Method 2", "result": "0.114 ± 0.028", "unit": "h"}, {"measurement": "mean extrapolated effective dose per unit activity", "setting": "[5]; Method 1", "result": "8.59 × 10^−3 ± 7.46 × 10^−4 mSv/MBq"}, {"measurement": "effective dose", "setting": "[5]; Method 1", "result": "1.72 mSv and 1.7 mSv"}, {"measurement": "effective dose", "setting": "[5]; Method 2", "result": 1.25, "unit": "mSv"}, {"measurement": "maximum administered human activity limit", "setting": "[5]; Method 2, kidneys dose-limiting, 21CFR361.1", "result": "1,742 MBq"}, {"measurement": "Mean RT (time-integrated activity coefficient) scaled to humans", "setting": "[5]; Muscle, Method 2", "result": "0.077 ± 0.018", "unit": "h"}, {"measurement": "Mean RT (time-integrated activity coefficient) scaled to humans", "setting": "[5]; Tot. Kidney, Method 1", "result": "0.141 ± 0.033", "unit": "h"}, {"measurement": "Mean RT (time-integrated activity coefficient) scaled to humans", "setting": "[5]; Tot. Kidney, Method 2", "result": "0.042 ± 0.009", "unit": "h"}, {"measurement": "feasible injected activities", "setting": "[5]; most stringent dosimetric calculations", "result": "up to 0.56 GBq"}, {"measurement": "mean extrapolated effective dose per unit activity", "setting": "[5]; second value, printed Method 1", "result": "6.23 × 10^−3 ± 5.74 × 10^−4 mSv/MBq"}]}
